Tests used:
Format in all cases: functional
NCI-H226 = assay: Growth inhibition of human NCI-H226 cells assessed as cell growth at 3X10'-6 M after 48 hrs by sulforhodamine B assay; conditions: NCI-H226, 48 h, read-out: Activity
T47D [1] = assay: Growth inhibition of human T47D cells assessed as cell growth at 3X10'-5 M after 48 hrs by sulforhodamine B assay; conditions: read-out: Activity
SK-MEL-28 [2] = assay: Growth inhibition of human SK-MEL-28 cells assessed as cell growth at 3X10'-7 M after 48 hrs by sulforhodamine B assay; conditions: SK-MEL-28, 48 h, read-out: Activity
U-251 [3] = assay: Growth inhibition of human U251 cells assessed as cell growth at 3X10'-9 M after 48 hrs by sulforhodamine B assay; conditions: U-251, 48 h, read-out: Activity
OVCAR-8 [4] = assay: Growth inhibition of human OVCAR8 cells assessed as cell growth at 3X10'-7 M after 48 hrs by sulforhodamine B assay; conditions: OVCAR-8, 48 h, read-out: Activity
SW-620 = assay: Growth inhibition of human SW620 cells assessed as cell growth at 3X10'-6 M after 48 hrs by sulforhodamine B assay; conditions: SW-620, 48 h, read-out: Activity
RXF 393 [5] = assay: Growth inhibition of human RXF393 cells assessed as cell growth at 3X10'-8 M after 48 hrs by sulforhodamine B assay; conditions: RXF 393, 48 h, read-out: Activity
SN12C = assay: Growth inhibition of human SN12C cells assessed as cell growth at 3X10'-6 M after 48 hrs by sulforhodamine B assay; conditions: read-out: Activity
LOX IMVI = assay: Growth inhibition of human LOXIMVI cells assessed as cell growth at 3X10'-9 M after 48 hrs by sulforhodamine B assay; conditions: read-out: Activity
BT-549 [6] = assay: Growth inhibition of human BT549 cells assessed as cell growth at 3X10'-8 M after 48 hrs by sulforhodamine B assay; conditions: BT-549, 48 h, read-out: Activity
A498 = assay: Growth inhibition of human A498 cells assessed as cell growth at 3X10'-9 M after 48 hrs by sulforhodamine B assay; conditions: A498, 48 h, read-out: Activity
T47D [7] = assay: Growth inhibition of human T47D cells assessed as cell growth at 3X10'-8 M after 48 hrs by sulforhodamine B assay; conditions: read-out: Activity
OVCAR-4 = assay: Growth inhibition of human OVCAR4 cells assessed as cell growth at 3X10'-9 M after 48 hrs by sulforhodamine B assay; conditions: OVCAR-4, 48 h, read-out: Activity
ACHN [8] = assay: Growth inhibition of human ACHN cells assessed as cell growth at 3X10'-5 M after 48 hrs by sulforhodamine B assay; conditions: read-out: Activity
Malme-3M [9] = assay: Growth inhibition of human MALME-3M cells assessed as cell growth at 3X10'-8 M after 48 hrs by sulforhodamine B assay; conditions: read-out: Activity
NCI-H522 [10] = assay: Growth inhibition of human NCI-H522 cells assessed as cell growth at 3X10'-5 M after 48 hrs by sulforhodamine B assay; conditions: NCI-H522, 48 h, read-out: Activity
OVCAR-8 [11] = assay: Growth inhibition of human OVCAR8 cells assessed as cell growth at 3X10'-8 M after 48 hrs by sulforhodamine B assay; conditions: OVCAR-8, 48 h, read-out: Activity
Malme-3M [12] = assay: Growth inhibition of human MALME-3M cells assessed as cell growth at 3X10'-9 M after 48 hrs by sulforhodamine B assay; conditions: read-out: Activity
SK-MEL-28 [13] = assay: Growth inhibition of human SK-MEL-28 cells assessed as cell growth at 3X10'-8 M after 48 hrs by sulforhodamine B assay; conditions: SK-MEL-28, 48 h, read-out: Activity
NCI-H522 [14] = assay: Growth inhibition of human NCI-H522 cells assessed as cell growth at 3X10'-9 M after 48 hrs by sulforhodamine B assay; conditions: NCI-H522, 48 h, read-out: Activity
SF-295 = assay: Growth inhibition of human SF295 cells assessed as cell growth at 3X10'-6 M after 48 hrs by sulforhodamine B assay; conditions: SF-295, 48 h, read-out: Activity
COLO 205 = assay: Growth inhibition of human COLO205 cells assessed as cell growth at 3X10'-8 M after 48 hrs by sulforhodamine B assay; conditions: COLO 205, 48 h, read-out: Activity
BT-549 [15] = assay: Growth inhibition of human BT549 cells assessed as cell growth at 3X10'-6 M after 48 hrs by sulforhodamine B assay; conditions: BT-549, 48 h, read-out: Activity
UACC-257 [16] = assay: Growth inhibition of human UACC257 cells assessed as cell growth at 3X10'-8 M after 48 hrs by sulforhodamine B assay; conditions: UACC-257, 48 h, read-out: Activity
UACC-62 = assay: Growth inhibition of human UACC62 cells assessed as cell growth at 3X10'-7 M after 48 hrs by sulforhodamine B assay; conditions: UACC-62, 48 h, read-out: Activity
UACC-257 [17] = assay: Growth inhibition of human UACC257 cells assessed as cell growth at 3X10'-7 M after 48 hrs by sulforhodamine B assay; conditions: UACC-257, 48 h, read-out: Activity
SK-MEL-2 [18] = assay: Growth inhibition of human SK-MEL-2 cells assessed as cell growth at 3X10'-8 M after 48 hrs by sulforhodamine B assay; conditions: SK-MEL-2, 48 h, read-out: Activity
ACHN [19] = assay: Growth inhibition of human ACHN cells assessed as cell growth at 3X10'-6 M after 48 hrs by sulforhodamine B assay; conditions: read-out: Activity
CAKI-1 = assay: Growth inhibition of human CAKI-1 cells assessed as cell growth at 3X10'-8 M after 48 hrs by sulforhodamine B assay; conditions: CAKI-1, 48 h, read-out: Activity
HL-60(TB) [20] = assay: Growth inhibition of human HL-60(TB) cells assessed as cell growth at 3X10'-5 M after 48 hrs by sulforhodamine B assay; conditions: HL-60, 48 h, read-out: Activity
RXF 393 [21] = assay: Growth inhibition of human RXF393 cells assessed as cell growth at 3X10'-7 M after 48 hrs by sulforhodamine B assay; conditions: RXF 393, 48 h, read-out: Activity
SK-MEL-2 [22] = assay: Growth inhibition of human SK-MEL-2 cells assessed as cell growth at 3X10'-9 M after 48 hrs by sulforhodamine B assay; conditions: SK-MEL-2, 48 h, read-out: Activity
MDA-MB-435 = assay: Growth inhibition of human MDA-MB-435 cells assessed as cell growth at 3X10'-6 M after 48 hrs by sulforhodamine B assay; conditions: MDA-MB-435, 48 h, read-out: Activity
TK-10 = assay: Growth inhibition of human TK10 cells assessed as cell growth at 3X10'-6 M after 48 hrs by sulforhodamine B assay; conditions: TK-10, 48 h, read-out: Activity
NCI-H522 [23] = assay: Growth inhibition of human NCI-H522 cells assessed as cell growth at 3X10'-6 M after 48 hrs by sulforhodamine B assay; conditions: NCI-H522, 48 h, read-out: Activity
T47D [24] = assay: Growth inhibition of human T47D cells assessed as cell growth at 3X10'-6 M after 48 hrs by sulforhodamine B assay; conditions: read-out: Activity
U-251 [25] = assay: Growth inhibition of human U251 cells assessed as cell growth at 3X10'-7 M after 48 hrs by sulforhodamine B assay; conditions: U-251, 48 h, read-out: Activity
HL-60(TB) [26] = assay: Growth inhibition of human HL-60(TB) cells assessed as cell growth at 3X10'-7 M after 48 hrs by sulforhodamine B assay; conditions: HL-60, 48 h, read-out: Activity

Row | SMILES | growth at 3 µM (NCI-H226) [%] | growth at 30 µM (T47D [1]) [%] | growth at 0.3 µM (SK-MEL-28 [2]) [%] | growth at 0.003 µM (U-251 [3]) [%] | growth at 0.3 µM (OVCAR-8 [4]) [%] | growth at 3 µM (SW-620) [%] | growth at 0.03 µM (RXF 393 [5]) [%] | growth at 3 µM (SN12C) [%] | growth at 0.003 µM (LOX IMVI) [%] | growth at 0.03 µM (BT-549 [6]) [%] | growth at 0.003 µM (A498) [%] | growth at 0.03 µM (T47D [7]) [%] | growth at 0.003 µM (OVCAR-4) [%] | growth at 30 µM (ACHN [8]) [%] | growth at 0.03 µM (Malme-3M [9]) [%] | growth at 30 µM (NCI-H522 [10]) [%] | growth at 0.03 µM (OVCAR-8 [11]) [%] | growth at 0.003 µM (Malme-3M [12]) [%] | growth at 0.03 µM (SK-MEL-28 [13]) [%] | growth at 0.003 µM (NCI-H522 [14]) [%] | also measured
1 | O=C(Nc1cccc(-n2cc(-c3ccncc3)c(-c3ccc(Cl)c(O)c3)n2)c1)Nc1cccc(C(F)(F)F)c1 | 66 | 7 | 101 | 100 | 91 | 53 | 97 | 37 | 97 | 96 | 92 | 95 | 101 | 7 | 82 | -13 | 106 | 96 | 100 | 95 | growth at 3 µM (SF-295): 7%; growth at 0.03 µM (COLO 205): 99%; growth at 3 µM (BT-549 [15]): 79%; growth at 0.03 µM (UACC-257 [16]): 100%; growth at 0.3 µM (UACC-62): 92%; growth at 0.3 µM (UACC-257 [17]): 92%; growth at 0.03 µM (SK-MEL-2 [18]): 98%; growth at 3 µM (ACHN [19]): 21%; growth at 0.03 µM (CAKI-1): 94%; growth at 30 µM (HL-60(TB) [20]): 1%; growth at 0.3 µM (RXF 393 [21]): 88%; growth at 0.003 µM (SK-MEL-2 [22]): 93%; growth at 3 µM (MDA-MB-435): 26%; growth at 3 µM (TK-10): 37%; growth at 3 µM (NCI-H522 [23]): 25%; growth at 3 µM (T47D [24]): 44%; growth at 0.3 µM (U-251 [25]): 97%
2 | COc1cc(-c2nn(-c3cccc(NC(=O)Nc4ccc(Cl)c(C(F)(F)F)c4)c3)cc2-c2ccncc2)ccc1Cl | 38 | 8 | 95 | 97 | 97 | 17 | 93 | 16 | 97 | 113 | 90 | 101 | 96 | -4 | 102 | -21 | 101 | 112 | 95 | 106 | growth at 3 µM (SF-295): -11%; growth at 0.03 µM (COLO 205): 103%; growth at 3 µM (BT-549 [15]): 40%; growth at 0.03 µM (UACC-257 [16]): 90%; growth at 0.3 µM (UACC-62): 89%; growth at 0.3 µM (UACC-257 [17]): 91%; growth at 0.3 µM (HL-60(TB) [26]): 110%; growth at 0.03 µM (SK-MEL-2 [18]): 115%; growth at 3 µM (ACHN [19]): 8%; growth at 0.03 µM (CAKI-1): 94%; growth at 30 µM (HL-60(TB) [20]): 6%; growth at 0.3 µM (RXF 393 [21]): 88%; growth at 0.003 µM (SK-MEL-2 [22]): 111%; growth at 3 µM (MDA-MB-435): -36%; growth at 3 µM (TK-10): 25%; growth at 3 µM (NCI-H522 [23]): 8%; growth at 3 µM (T47D [24]): 18%; growth at 0.3 µM (U-251 [25]): 90%
3 | O=C(Nc1cccc(-n2cc(-c3ccncc3)c(-c3ccc(Cl)c(O)c3)n2)c1)Nc1ccc(Cl)c(Cl)c1 | 28 | -9 | 97 | 98 | 95 | 23 | 100 | 17 | 96 | 102 | 103 | 95 | 103 | 1 | 89 | -13 | 98 | 92 | 102 | 96 | growth at 0.03 µM (COLO 205): 97%; growth at 3 µM (BT-549 [15]): 28%; growth at 0.03 µM (UACC-257 [16]): 93%; growth at 0.3 µM (UACC-62): 91%; growth at 0.3 µM (UACC-257 [17]): 93%; growth at 0.03 µM (SK-MEL-2 [18]): 106%; growth at 3 µM (ACHN [19]): 5%; growth at 0.03 µM (CAKI-1): 94%; growth at 30 µM (HL-60(TB) [20]): 1%; growth at 0.3 µM (RXF 393 [21]): 83%; growth at 0.003 µM (SK-MEL-2 [22]): 98%; growth at 3 µM (MDA-MB-435): 14%; growth at 3 µM (TK-10): 31%; growth at 3 µM (NCI-H522 [23]): 14%; growth at 3 µM (T47D [24]): 26%; growth at 0.3 µM (U-251 [25]): 100%

— ChEMBL document CHEMBL2440076, “New triarylpyrazoles as broad-spectrum anticancer agents: design, synthesis, and biological evaluation” (Eur J Med Chem, 2013)
